Target: recombinant Mcl-1 (residues 172-327) (Homo sapiens (Human), UniProt Q07820)
Experiment: Bak peptide binding assay, fluorescence polarization anisotropy competition (FITC-Bak), Mcl-1;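 further: displacement of labeled Bak peptide read by fluorescence anisotropy, 10-point threefold dilutions from 20 µM top dose in 5% DMSO, 90 min incubation at room temperature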
Conditions: Table 3, binned ranges; FITC-Bak peptide 10 nM, Mcl-1 14 nM; read-out: Ki for inhibition of Mcl-1

Sequence of recombinant Mcl-1 (residues 172-327) (Q07820 172-327): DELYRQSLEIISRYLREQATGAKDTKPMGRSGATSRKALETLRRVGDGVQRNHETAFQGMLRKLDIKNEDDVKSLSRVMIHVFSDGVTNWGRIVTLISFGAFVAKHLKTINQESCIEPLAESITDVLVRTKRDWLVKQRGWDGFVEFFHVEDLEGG

`Cc1cc(OCCCc2c(C)n(Cc3ccc(CC(=O)O)cc3)c3c(-c4c(C)nn(C)c4C)c(Cl)ccc23)cc(C)c1Cl` [Example 103, 2-(4-((6-chloro-3-(3-(4-chloro-3,5-dimethylphenoxy)propyl)-2-methyl-7-(1,3,5-trimethyl-1H-pyrazol-4-yl)-1H-indol-1-yl)methyl)phenyl)acetic acid] and `Cc1cc(OCCCc2c(C(F)(F)F)n(Cc3cccc(C(=O)O)c3)c3c(-c4c(C)nn(C)c4C)c(Cl)ccc23)cc(C)c1Cl` [Example 122, 3-((6-chloro-3-(3-(4-chloro-3,5-dimethylphenoxy)propyl)-2-(trifluoromethyl)-7-(1,3,5-trimethyl-1H-pyrazol-4-yl)-1H-indol-1-yl)methyl)benzoic acid] cannot be ordered by Ki: no more than 100 nM for the first, no more than 100 nM for the second.

`Cc1ccncc1-c1cccc2c(CCCOc3cc(C)c(Cl)c(C)c3)c(C)n(CCC(=O)NS(C)(=O)=O)c12` [Example 82, 3-(3-(3-(4-chloro-3,5-dimethylphenoxy)propyl)-2-methyl-7-(4-methylpyridin-3-yl)-1H-indol-1-yl)-N-(methylsulfonyl)propanamide] and `Cc1cc(OCCCc2c(C)n(CCC(=O)NS(C)(=O)=O)c3c(-c4ccnn4C)cccc23)cc(C)c1Cl` [Example 81, 3-(3-(3-(4-chloro-3,5-dimethylphenoxy)propyl)-2-methyl-7-(1-methyl-1H-pyrazol-5-yl)-1H-indol-1-yl)-N-(methylsulfonyl)propanamide] cannot be ordered by Ki: no more than 100 nM for the first, no more than 100 nM for the second.

`Cc1cc(OCCCc2c(C)n(CCC(=O)O)c3c(-c4c(C)nn(CC5CCOC5)c4C)cccc23)cc(C)c1Cl` (stereo not drawn) [Example 106, 3-(3-(3-(4-chloro-3,5-dimethylphenoxy)propyl)-7-(3,5-dimethyl-1-((tetrahydrofuran-3-yl)methyl)-1H-pyrazol-4-yl)-2-methyl-1H-indol-1-yl)propanoic acid] and `Cc1cc(OCCCc2c(C)n(CCC(=O)O)c3c(-c4c(C)nn(CCN5CCOCC5)c4C)cccc23)cc(C)c1Cl` [Example 79, 3-(3-(3-(4-chloro-3,5-dimethylphenoxy)propyl)-7-(3,5-dimethyl-1-(2-morpholinoethyl)-1H-pyrazol-4-yl)-2-methyl-1H-indol-1-yl)propanoic acid] cannot be ordered by Ki: no more than 100 nM for the first, no more than 100 nM for the second.

Compared with `Cc1cc(OCCCc2cn(CC(=O)O)c3ccccc23)cc(C)c1Cl` [Example 5, 2-(3-(3-(4-chloro-3,5-dimethylphenoxy)propyl)-1H-indol-1-yl)acetic acid], `Cc1cc(OCCCc2cn(CCC(=O)NS(=O)(=O)Cc3ccccc3)c3cc(Cl)ccc23)cc(C)c1Cl` [Example 38, N-(benzylsulfonyl)-3-(6-chloro-3-(3-(4-chloro-3,5-dimethylphenoxy)propyl)-1H-indol-1-yl)propanamide] is lower in Ki: 501 to 999 nM for the first, 301 to 500 nM for the second.

First: Cc1cc(OCCCc2c(C)n(CC(=O)O)c3c(-c4c(C)noc4C)cccc23)cc(C)c1Cl [Example 66, 2-(3-(3-(4-chloro-3,5-dimethylphenoxy)propyl)-7-(3,5-dimethylisoxazol-4-yl)-2-methyl-1H-indol-1-yl)acetic acid]
Second: Cc1cc(OCCCc2c(C)n(CCC(=O)O)c3c(-c4c(C)nn(CCN(C)C)c4C)cccc23)cc(C)c1Cl [Example 109, 3-(3-(3-(4-chloro-3,5-dimethylphenoxy)propyl)-7-(1-(2-(dimethylamino)ethyl)-3,5-dimethyl-1H-pyrazol-4-yl)-2-methyl-1H-indol-1-yl)propanoic acid]
The Ki of the first is lower: 101 to 299 nM for the first, 301 to 500 nM for the second. The first binds more tightly here.

`Cc1cc(OCCCc2c(C)n(CCC(=O)O)c3c(-c4c(C)nn(Cc5cccnc5)c4C)cccc23)cc(C)c1Cl` [Example 133, 3-(3-(3-(4-chloro-3,5-dimethylphenoxy)propyl)-7-(3,5-dimethyl-1-(pyridin-3-ylmethyl)-1H-pyrazol-4-yl)-2-methyl-1H-indol-1-yl)propanoic acid] and `Cc1cc(OCCCc2c(C)n(CCC(=O)O)c3c(-c4cccn4C)cccc23)cc(C)c1Cl` [Example 73, 3-(3-(3-(4-chloro-3,5-dimethylphenoxy)propyl)-2-methyl-7-(1-methyl-1H-pyrrol-2-yl)-1H-indol-1-yl)propanoic acid] cannot be ordered by Ki: no more than 100 nM for the first, no more than 100 nM for the second.

From patent US10954193B2 (Vanderbilt University, priority 2013, dated 2021)
